Test results reported in publication PMC5612938, “A multiple biomarker assay for quality assessment of botanical drugs using a versatile microfluidic chip” (Scientific Reports, 2017).

How the values were obtained:
[1] = target: T1, Thrombin (from human plasma) (Homo sapiens, UniProt P00734); test: on-chip thrombin inhibition assay (S-2238 hydrolysis, absorbance 405 nm); assay type: biochemical; conditions: for thrombin inhibition (in words): at tested concentrations
T1 construct: Thrombin (from human plasma); purchased Sigma-Aldrich; host or cells: human plasma
Method: To enhance the performance of the on-chip assay, experimental parameters such as concentrations of enzymes and substrates, substrate reaction time, and incubation time of samples and enzymes were stepwise optimized. The activity of thrombin was determined by measuring the hydrolysis of chromogenic substrate S-2238 (HD-Phe-Pip-Arg-pNA) at 405 nm. As depicted in Fig. 2a, the absorbance increased rapidly along with the elevated concentrations of thrombin, while it reached a plateau at 0.5 U/mL. […] Moreover, it was clear from Fig. 2d that the maximum inhibitory effect of QSYQ sample (I1 of Table 1 in this assay) on thrombin was observed after 60 min of incubation. Therefore, to achieve favorable response and prevent signal saturation, optimal assay conditions for thrombin were determined to be 0.2 U/mL, 0.31 mM, 30 min and 60 min for the final concentrations of thrombin and S-2238, substrate reaction time and incubation time, respectively. […] In this assay, the concentrations of ACE and FAPGG were finally set at 0.027 U/mL and 0.72 mM, where the background value was lower and the reaction time was relatively shorter (30 min).
The optimized protocol was first applied to assess the quality of 11 batches of QSYQ intermediates (Table 1). Enzyme inhibition (in percentages) was employed as an indicator of drug quality and calculated according to the following equations: thrombin inhibition (%) = [1 − (AQSYQ/Ablank)] × 100; ACE inhibition (%) = [1 − (ΔAQSYQ/ΔAblank)] × 100; where AQSYQ and Ablank were the absorbance of the test sample and the blank sample after the enzymatic reaction (the background value was subtracted), and ΔAQSYQ and ΔAblank were the absorbance decrease between 0 min and 30 min of the samples. A scatter plot was generated to display the inhibition result of thrombin and ACE simultaneously. […] Moreover, artificial abnormal samples I6, I7 and I8, each with one abnormal (pre-extracted) herb, presented relatively lower inhibitions compared with I1.
Thrombin (from human plasma), ACE (from rabbit lung), FAPGG and captopril were purchased from Sigma-Aldrich (St. Louis, USA). S-2238 was obtained from Aglyco (Beijing, China). AEBSF-HCl was purchased from Selleckchem (Houston, USA). Trizma base (Tris) was obtained from Sangon Biotech (Shanghai, China) and dimethyl sulfoxide (DMSO) from J&K Scientific (Beijing, China). All other chemicals were purchased from Sinopharm Chemical (Shanghai, China) unless otherwise indicated. 0.2 M Phosphate buffer (PB, pH 6.5), and 50 mM Tris-HCl buffer (200 mM NaCl, pH 8.3) were prepared as assay buffers for thrombin and ACE, respectively.
MBs (10 mg/mL) were diluted 10 times in PB or Tris-HCl buffer, and 10 μL of the diluted MBs (1 mg/mL) were injected into one channel of the chip using a syringe infusion pump (Harvard Apparatus, USA) and retained by an external magnet. Then, 10 μL of thrombin or ACE solution was added and incubated with MBs for two hours at room temperature to form enzyme-MB complexes. The magnet was manually controlled to move MBs back and forth to enhance the ratio of reaction. Subsequently, MBs were washed twice in assay buffer and magnetically transferred to the other channel through the fluidic bridge, whose opening and closing was controlled by a pneumatic valve. Next, 10 μL of sample solutions of tested drug and 10 μL of enzymatic substrate were sequentially infused to the channel by the pump and incubated with the enzyme. When the enzymatic reaction was finished, the MBs were retained in the channel, and air was injected into the channel from the inlet using a syringe to push all the reacted solution to a 384-well plate. The absorbance of the solution was then monitored at 405 nm (for S-2238) or 340 nm (for FAPGG) using an Infinite F200 spectrophotometer (Tecan, Männedorf, Switzerland). Moreover, after detection, the reaction channel was washed three times by assay buffer to remove unbound constituents. […]

[2] = target: T1, Thrombin (from human plasma); test: on-chip affinity screening, binding degree by LC-MS peak area vs protein-free control (thrombin); conditions: for thrombin; [(As − Ac)/As] × 100, sample vs protein-free control, EIC peak area
Description: In addition to quality assessment, the microfluidic chip can also function as “affinity chromatography” to identify bioactive constituents from botanical drugs in a convenient and efficient manner. After the bioassay, the bound phytochemicals were dissociated from the enzymes and accurately identified by LC-MS. The material used for the chambers in microfluidic system, polydimethylsiloxane (PDMS), is apt to adsorb small molecules nonspecifically, thus a protein-free control was applied to reflect the degree of nonspecific binding of compounds to the chip. Peak areas were obtained from the extracted ion chromatography (EIC) in an ion-trap mass spectrometry (IT-MS), and binding degree (binding degree % = [(As − Ac)/As] × 100, where As and Ac were the peak area in the sample and control, respectively) was calculated to indicate binding specificity. […] All these peaks were unambiguously confirmed via comparisons with chemical standards in terms of retention time and mass spectra (Table 2), and five thrombin inhibitors (danshensu, salvianolic acid B, salvianolic acid C, rosmarinic acid and ginsenoside Rg1) and six ACE inhibitors (astragaloside IV, ononin, formononetin, calycosin, danshensu and salvianolic acid B) were preliminarily identified. […] Enzyme inhibition assays of these hit compounds were then performed to verify the screening results. […] Compounds showing an inhibition rate over 70% were subjected to IC50 measurement.
MBs (10 mg/mL) were diluted 10 times in PB or Tris-HCl buffer, and 10 μL of the diluted MBs (1 mg/mL) were injected into one channel of the chip using a syringe infusion pump (Harvard Apparatus, USA) and retained by an external magnet. Then, 10 μL of thrombin or ACE solution was added and incubated with MBs for two hours at room temperature to form enzyme-MB complexes. The magnet was manually controlled to move MBs back and forth to enhance the ratio of reaction. Subsequently, MBs were washed twice in assay buffer and magnetically transferred to the other channel through the fluidic bridge, whose opening and closing was controlled by a pneumatic valve. Next, 10 μL of sample solutions of tested drug and 10 μL of enzymatic substrate were sequentially infused to the channel by the pump and incubated with the enzyme. When the enzymatic reaction was finished, the MBs were retained in the channel, and air was injected into the channel from the inlet using a syringe to push all the reacted solution to a 384-well plate. The absorbance of the solution was then monitored at 405 nm (for S-2238) or 340 nm (for FAPGG) using an Infinite F200 spectrophotometer (Tecan, Männedorf, Switzerland). Moreover, after detection, the reaction channel was washed three times by assay buffer to remove unbound constituents. 20 μL of 80% aqueous methanol was then injected and incubated with MBs for one hour to dissociate the bound constituents. The resulting solutions of replicates were combined, evaporated by a centrifugal evaporator, reconstituted in 80% aqueous methanol, centrifuged at 10,000 rpm for 10 min, and analyzed by LC-MS for chemical identification.
An Agilent 1100 HPLC system (Agilent Technologies, Waldbronn, Germany) coupled with an LCQ Deca XP^plus IT-MS (Thermo Finnigan, San Jose, CA, USA) equipped with an electrospray ionization (ESI) interface was employed for structure elucidation of the bounded constituents. […]

Structure (SMILES)	thrombin inhibition (in words) [1]	IC50 ([1]; for thrombin) [µM]	Binding degree (%) [2] [%]	inhibition rate ([1]; for thrombin, maximum inhibition rate observed in the assay) [%]
O=C(/C=C/c1ccc(O)c2c1[C@H](C(=O)O[C@H](Cc1ccc(O)c(O)c1)C(=O)O)[C@@H](c1ccc(O)c(O)c1)O2)O[C@H](Cc1ccc(O)c(O)c1)C(=O)O [Salvianolic acid B]	good thrombin inhibitions	81.9	34.9	–
O=C(O)C(O)Cc1ccc(O)c(O)c1 (stereo not drawn) [Danshensu]	good thrombin inhibitions	–	50.9	66.9
